The data set is described as follows: Solubility of V3 peptides. In kind it is physicochemical. The note with it: for solubility: 10 percent DMSO in water, estimated by turbidity, read-out: solubility in 10 percent DMSO solution at pH=7.4. The procedure:
To obtain cyclic peptides, solutions of the R2 and R2(313-4PM/HI, 325Q/D) V3 35-mers in dimethylsulfoxide (DMSO), 10 mg/ml, were diluted 1:10 in water at room temperature or 37° C. and the pH was adjusted to 8.5 with ammonium hydroxide. These solutions were aerated by bubbling air through the solutions for periods ≧1 hour. Following aeration, the pH was adjusted to 7.4 using hydrochloric acid. A portion of the R2 35-mer peptide precipitated during these procedures. To obtain an approximate quantitation of the amount of R2 V3 35-mer that remained in solution, the turbidity of the suspension was determined at 480 nm wavelength visible light using a spectrophotometer. The spectrophotometer was blanked with a solution of 10 percent DMSO in water, and a standard curve was produced using slurries of known amounts of the 35-mer peptide suspended in water. The amount of precipitate estimated by turbidity was subtracted from the amount of peptide added at the beginning of the preparation procedure to estimate the amount remaining in solution. […] Peptides were sterilized by passage through 0.22μ pore size filters prior to use.

Values after ≈ are worked out from the molar mass of the structure shown. Read-outs that look alike come from different tables or passages of the source. Bridge positions count the residues as written; N and C are the ends. Peptide text beside a SMILES is read from it.

In the case of `CC[C@H](C)[C@@H]1NC(=O)[C@H](CC(=O)O)NC(=O)CNC(=O)[C@H]([C@@H](C)CC)NC(=O)[C@H]([C@@H](C)CC)NC(=O)[C@H](CCC(N)=O)NC(=O)CNC(=O)[C@H]([C@@H](C)O)NC(=O)[C@H]([C@@H](C)O)NC(=O)[C@H](Cc2ccc(O)cc2)NC(=O)[C@H](Cc2ccccc2)NC(=O)[C@H](C)NC(=O)[C@H](CCCNC(=N)N)NC(=O)CNC(=O)[C@@H]2CCCN2C(=O)CNC(=O)[C@H](CCSC)NC(=O)[C@@H]2CCCN2C(=O)[C@H]([C@@H](C)CC)NC(=O)[C@H](CO)NC(=O)[C@H](CCCCN)NC(=O)[C@H](CCCNC(=N)N)NC(=O)[C@H]([C@@H](C)O)NC(=O)[C@H](CC(N)=O)NC(=O)[C@H](CC(N)=O)NC(=O)[C@H](CC(N)=O)NC(=O)[C@@H]2CCCN2C(=O)[C@H](CCCNC(=N)N)NC(=O)[C@H](CO)NC(=O)[C@@H](N)CSSC[C@@H](C(=O)O)NC(=O)[C@H](Cc2c[nH]cn2)NC(=O)[C@H](C)NC(=O)[C@H](CCC(N)=O)NC(=O)[C@H](CCCNC(=N)N)NC1=O` [cyclic 35-mer R2 V3 peptide] (H-CSRPNNNTRKSIPMGPGRAFYTTGQIIGDIRQAHC-OH; disulfide 1-35; N-terminus and C-terminus assumed), the solubility by setting is: (pH 7.4, processed at 37° C.) 850 to 900 µg/mL (≈ 220 to 233 µM); (pH 7.4, processed at room temperature) 300 to 350 µg/mL (≈ 77.7 to 90.7 µM). As to “CSRPNNNTRKSIPMGPGRAFYTTGQIIGDIRQAHC (Human immunodeficiency virus type 1; R2 strain V3 domain) [R2 V3 35-mer]”, the “solubility in water” value (water) was “insoluble in water”.

The values above are taken from patent US7608688B2, “HIV-1 protein associated with broadly reactive neutralizing antibody response” (The Henry M. Jackson Foundation for the Advancement of …, priority 1998, dated 2009).
